Several values for one entry are separate records, joined by “and”; a condition that tells them apart may be missing. Identical values can stand only once. Bridge positions count the residues as written; N and C are the ends. Square brackets hold non-standard residues; d marks the D form. Triazole bridges read from a SMILES are 1,4-linked. Peptide text beside a SMILES is read from it. Orn(N3) = [N-]=[N+]=NCCC[C@H](N)C(=O)O; Cit = NC(=O)NCCC[C@H](N)C(=O)O; Pra = C#CC[C@H](N)C(=O)O
Legend:
[1] = molecular target: rat α9α10 nAChR (Rattus norvegicus, UniProt P43144+Q9JLB5); experiment: cell-based; format: cell-based; settings: for IC50: α9α10 nAChR IC50 (nM) Rat
Chain of rat α9α10 nAChR (P43144 26-479 limits assumed): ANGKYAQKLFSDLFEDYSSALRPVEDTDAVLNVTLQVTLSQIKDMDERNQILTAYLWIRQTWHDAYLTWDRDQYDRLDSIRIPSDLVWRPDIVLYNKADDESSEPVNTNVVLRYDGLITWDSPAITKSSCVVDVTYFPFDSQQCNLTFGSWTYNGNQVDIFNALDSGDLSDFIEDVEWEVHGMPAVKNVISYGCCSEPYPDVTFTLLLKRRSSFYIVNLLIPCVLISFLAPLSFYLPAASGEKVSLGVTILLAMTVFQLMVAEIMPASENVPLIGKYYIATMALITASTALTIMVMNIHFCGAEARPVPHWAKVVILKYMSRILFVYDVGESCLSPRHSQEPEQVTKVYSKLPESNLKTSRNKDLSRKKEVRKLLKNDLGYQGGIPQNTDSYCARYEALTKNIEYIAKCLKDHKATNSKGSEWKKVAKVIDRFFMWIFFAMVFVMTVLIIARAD
Chain of rat α9α10 nAChR (Q9JLB5 25-447 limits assumed): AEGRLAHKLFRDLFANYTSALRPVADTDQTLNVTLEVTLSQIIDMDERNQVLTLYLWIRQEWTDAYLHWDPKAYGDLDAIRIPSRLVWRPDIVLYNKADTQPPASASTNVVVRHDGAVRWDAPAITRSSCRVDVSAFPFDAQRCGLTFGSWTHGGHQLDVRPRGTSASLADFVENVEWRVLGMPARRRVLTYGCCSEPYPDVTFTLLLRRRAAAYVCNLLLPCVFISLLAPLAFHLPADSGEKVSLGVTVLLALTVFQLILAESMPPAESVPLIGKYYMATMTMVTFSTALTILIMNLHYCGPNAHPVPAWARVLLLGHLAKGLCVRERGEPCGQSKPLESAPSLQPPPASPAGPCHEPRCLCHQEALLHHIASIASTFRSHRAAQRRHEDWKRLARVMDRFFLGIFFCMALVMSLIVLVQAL

[2] = molecular target: human α9α10 nAChR (Homo sapiens, UniProt Q9GZZ6+Q9UGM1); experiment: cell-based; format: cell-based
Chain of human α9α10 nAChR (Q9UGM1 26-479 limits assumed): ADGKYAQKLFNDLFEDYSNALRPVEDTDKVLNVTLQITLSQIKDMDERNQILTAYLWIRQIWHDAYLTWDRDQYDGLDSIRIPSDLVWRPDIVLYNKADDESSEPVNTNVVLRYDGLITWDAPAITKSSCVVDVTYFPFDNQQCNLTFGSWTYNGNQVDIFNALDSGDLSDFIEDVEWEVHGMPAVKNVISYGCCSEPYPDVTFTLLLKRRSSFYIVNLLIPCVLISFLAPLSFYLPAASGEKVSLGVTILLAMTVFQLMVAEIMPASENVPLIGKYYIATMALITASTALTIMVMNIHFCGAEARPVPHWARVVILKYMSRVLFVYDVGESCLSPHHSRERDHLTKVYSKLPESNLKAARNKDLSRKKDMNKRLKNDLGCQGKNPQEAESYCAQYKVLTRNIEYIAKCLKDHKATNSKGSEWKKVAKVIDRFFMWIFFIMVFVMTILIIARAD
Chain of human α9α10 nAChR (Q9GZZ6 25-450 limits assumed): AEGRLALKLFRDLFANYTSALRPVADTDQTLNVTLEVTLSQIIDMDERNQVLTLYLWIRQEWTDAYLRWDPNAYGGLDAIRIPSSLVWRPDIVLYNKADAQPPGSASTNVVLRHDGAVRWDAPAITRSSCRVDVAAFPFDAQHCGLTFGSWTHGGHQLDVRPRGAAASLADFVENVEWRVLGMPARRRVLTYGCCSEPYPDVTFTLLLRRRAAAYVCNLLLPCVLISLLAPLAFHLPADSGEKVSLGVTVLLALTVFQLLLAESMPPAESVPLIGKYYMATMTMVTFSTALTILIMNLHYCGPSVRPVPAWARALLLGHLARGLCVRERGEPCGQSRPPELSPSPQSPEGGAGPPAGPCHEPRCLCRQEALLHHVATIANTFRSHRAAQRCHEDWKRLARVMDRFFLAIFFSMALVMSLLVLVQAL

[3] = rat, in vivo, 1 mg/kg, 1 h
[4] = 24 h
[5] = system: oxaliplatin-induced peripheral neuropathy; set-up: species or system Sprague Dawley rats; settings: in vivo
[6] = in vivo; settings: male, Sprague Dawley, rat, sc, 1 mg/kg
[7] = system: spared nerve injury; set-up: species or system rats; settings: rat, in vivo, 0.5 mg/kg
[8] = molecular target: α7 nAChR (Homo sapiens, UniProt P36544); settings: read-out: Partial inhibition of the α7 nAChR
Chain of α7 nAChR (P36544 23-502 limits assumed): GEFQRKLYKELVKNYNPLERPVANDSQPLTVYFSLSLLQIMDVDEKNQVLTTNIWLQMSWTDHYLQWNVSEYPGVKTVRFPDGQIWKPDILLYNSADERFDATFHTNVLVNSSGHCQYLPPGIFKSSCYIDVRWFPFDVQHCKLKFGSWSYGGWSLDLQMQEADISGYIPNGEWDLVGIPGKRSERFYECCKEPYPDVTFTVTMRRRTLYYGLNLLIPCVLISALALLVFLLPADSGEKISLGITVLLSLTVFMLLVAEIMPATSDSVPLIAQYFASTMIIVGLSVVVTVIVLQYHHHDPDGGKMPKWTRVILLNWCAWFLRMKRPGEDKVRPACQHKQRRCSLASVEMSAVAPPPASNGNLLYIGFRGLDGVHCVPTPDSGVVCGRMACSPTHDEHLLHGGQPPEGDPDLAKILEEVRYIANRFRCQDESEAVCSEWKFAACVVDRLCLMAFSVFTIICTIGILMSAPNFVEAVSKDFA

[9] = system: 88 receptors, transporters, enzymes and kinases
[10] = system: α9α10 nAChR; settings: cited from earlier work

## C[C@@H](O)[C@@H]1NC(=O)[C@@H]2CSSC[C@@H](C(=O)N[C@@H](Cc3ccc(O)cc3)C(N)=O)NC(=O)[C@H](CCC(N)=O)NC(=O)[C@H](Cc3ccc(O)c(I)c3)NC(=O)[C@H](CCCNC(N)=O)NC(=O)[C@H](CSSC[C@H](NC(=O)CN)C(=O)N2)NC(=O)[C@H](CCCNC(=N)N)NC(=O)[C@@H]2CCCN2C(=O)[C@H](CC(=O)O)NC1=O [CSP-4-NH2, reference compound]
[1]
  Activity on the rat α9α10 nAChR (in words): active
  IC50: 0.4 ± 0.2 nM
[2]
  Activity on the human α9α10 nAChR (in words): active
  Block of ACh-evoked currents: > 99%
  IC50: 3.5 ± 1.5 nM
  Percent of 100 μM acetylcholine-induced current remaining in the presence of compound, Mean ± SEM: 0.4 ± 0.11%
[3]
  Recovered peptide from blood remaining in the native form: 40-50%

## C[C@@H](O)[C@@H]1NC(=O)[C@@H]2Cc3cn(nn3)CCC[C@@H](C(=O)N[C@@H](Cc3ccc(O)cc3)C(=O)O)NC(=O)[C@H](CCC(N)=O)NC(=O)[C@H](Cc3c[nH]c4ccccc34)NC(=O)[C@H](CCCNC(N)=O)NC(=O)[C@H](CSSC[C@H](NC(=O)CN)C(=O)N2)NC(=O)[C@H](CCCNC(=N)N)NC(=O)[C@@H]2CCCN2C(=O)[C@H](CC(=O)O)NC1=O [Ia, L-tyrosine, glycyl-L-cysteinyl-L-alanyl-L-threonyl-L-α-aspartyl-L-prolyl-L-arginyl-L-cysteinyl-N5-(aminocarbonyl)-L-ornithyl-L-tryptophyl-L-glutaminyl-L-norvalyl-cyclic (2→8) disulfide-cyclic 3^3,12^5-(1H-1,2,3-triazole-4,1-diyl)] (H-GC[Pra]TDPRC[Cit]WQ[Orn(N3)]Y-OH; disulfide 2-8; triazole 3-12)
[1]
  IC50: 14.3 ± 1.8 nM
[2]
  IC50: 0.7 ± 0.03 nM
[4]
  Disulfide rearrangement / stability in plasma and serum (in words): single isolated peak on reverse phase HPLC in rat plasma at 0 h, 8 h and 24 h
[5]
  PD (Rat CIPN) Duration of PD effect: 4 to 24 h
  PD (Rat CIPN) Required dose to reach max efficacy: 0.5 mg/kg
[5]; rat, 0.5 mg/kg
  Duration of significant reduction in mechanical hyperalgesia compared to vehicle: up to 4 h
[6]
  AUC: 981 ng·h/mL
  AUC(0-t): 981 ng·h/mL
  Cmax: 648 ng/mL
  Tmax: 15 min
  half-life: 30 min

## C[C@@H](O)[C@@H]1NC(=O)[C@@H]2Cc3cn(nn3)CCC[C@@H](C(=O)N[C@@H](Cc3ccc(O)cc3)C(N)=O)NC(=O)[C@H](CCC(N)=O)NC(=O)[C@H](Cc3c[nH]c4ccccc34)NC(=O)[C@H](CCCNC(N)=O)NC(=O)[C@H](CSSC[C@H](NC(=O)CN)C(=O)N2)NC(=O)[C@H](CCCNC(=N)N)NC(=O)[C@@H]2CCCN2C(=O)[C@H](CC(=O)O)NC1=O [Ia′, L-tyrosinamide, glycyl-L-cysteinyl-L-alanyl-L-threonyl-L-α-aspartyl-L-prolyl-L-arginyl-L-cysteinyl-N5-(aminocarbonyl)-L-ornithyl-L-tryptophyl-L-glutaminyl-L-norvalyl-cyclic (2→8)-disulfide-cyclic 3^3,12^5-(1H-1,2,3-triazole-4,1-diyl)] (H-GC[Pra]TDPRC[Cit]WQ[Orn(N3)]Y-NH2; disulfide 2-8; triazole 3-12)
[7]
  Duration of significant reduction in mechanical hyperalgesia compared to vehicle: up to 24 h
[7]; sc
  Mechanical hyperalgesia versus vehicle (in words): statistically significant improvement in mechanical hyperalgesia
[1]
  IC50: 12.6 nM and 7.7 nM
[2]
  IC50: 26 ± 4 nM
[5]; rat, 0.5 mg/kg
  Duration of significant reduction in mechanical hyperalgesia compared to vehicle: up to 24 h
[5]; rat, sc, 0.5 mg/kg
  Mechanical hyperalgesia versus vehicle (in words): statistically significant improvements in mechanical hyperalgesia
[8]
  inhibition at 10 µM: 52%
[9]
  Off-target effects in panel of 88 receptors, transporters, enzymes and kinases: no off-target effects

## N=C(N)NCCC[C@H](NC(=O)[C@@H]1CSSC[C@@H]2NC(=O)[C@@H](NC(=O)CN)CSSC[C@H](NC(=O)[C@H](CCCNC(=N)N)NC(=O)[C@@H]3CCCN3C(=O)[C@H](CC(=O)O)NC(=O)[C@H](CO)NC2=O)C(=O)N[C@@H](CCCNC(=N)N)C(=O)N[C@@H](Cc2ccc(O)cc2)C(=O)N[C@@H](CCCNC(=N)N)C(=O)N1)C(=O)O [RgIA]
[10]
  Lower affinity for the human than the rat α9α10 nAChR: approximately 300 fold

From patent publication US11612661B2 (priority 2019, dated 2023)
